From patent US11712438B2, “Phenyl derivatives as PGE2 receptor modulators” (IDORSIA PHARMACEUTICALS LTD, priority 2017, dated 2023)
pIC50: −log10 of the molar value.

Tests used:
Experiment in all cases: cell-based
PTGER2 (EP2) = PTGER2 (EP2) (Homo sapiens, UniProt P43116)
EP4 = EP4 (Homo sapiens, UniProt P35408);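 further: inhibition of PGE2-evoked (6 nM) cAMP accumulation in BT549 breast cancer cells endogenously expressing EP4, cAMP read by HTRF competitive immunoassay after 30 min at room temperature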
Chain of EP4 (P35408 whole entry): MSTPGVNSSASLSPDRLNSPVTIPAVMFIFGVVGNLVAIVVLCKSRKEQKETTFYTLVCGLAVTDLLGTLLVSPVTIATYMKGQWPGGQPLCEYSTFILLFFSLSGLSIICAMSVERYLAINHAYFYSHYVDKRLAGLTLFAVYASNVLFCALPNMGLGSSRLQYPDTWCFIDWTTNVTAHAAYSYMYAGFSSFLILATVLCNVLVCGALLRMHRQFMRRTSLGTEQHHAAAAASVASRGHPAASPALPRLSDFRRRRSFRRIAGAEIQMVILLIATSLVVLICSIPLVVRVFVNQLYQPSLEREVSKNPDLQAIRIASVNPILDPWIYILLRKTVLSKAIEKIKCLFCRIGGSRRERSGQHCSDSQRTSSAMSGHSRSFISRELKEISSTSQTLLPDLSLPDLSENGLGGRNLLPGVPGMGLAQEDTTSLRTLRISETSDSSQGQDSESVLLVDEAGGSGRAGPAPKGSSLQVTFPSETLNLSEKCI

EP2 = EP2 (Homo sapiens, UniProt P43116);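 further: SF295 glioblastoma cells with endogenous EP2 only, PGE2-stimulated cAMP accumulation read by HTRF competitive immunoassay, 45 min pre-incubation then 30 min at room temperature, IBMX in buffer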
Chain of EP2 (P43116 whole entry): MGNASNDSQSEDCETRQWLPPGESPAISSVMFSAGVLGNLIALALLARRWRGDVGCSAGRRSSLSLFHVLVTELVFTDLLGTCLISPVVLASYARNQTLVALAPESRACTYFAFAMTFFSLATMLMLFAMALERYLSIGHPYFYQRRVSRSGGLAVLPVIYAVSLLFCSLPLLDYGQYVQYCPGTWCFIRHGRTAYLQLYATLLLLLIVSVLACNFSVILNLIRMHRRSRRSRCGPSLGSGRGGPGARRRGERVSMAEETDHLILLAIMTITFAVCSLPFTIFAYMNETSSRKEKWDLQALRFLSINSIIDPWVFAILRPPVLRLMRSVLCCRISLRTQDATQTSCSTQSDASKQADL
Description: The antagonistic activities of the compounds of formula (I) on the EP2 and EP4 receptors are also determined in accordance with the following experimental method.
Human tumor cell lines expressing endogenously either EP4 or EP2 are used and cAMP accumulation in cells upon PGE2 stimulation is monitored. SF295 glioblastoma cells express high endogenous EP2 and no EP4,whereas BT549 breast cancer cells, express high endogenous EP4 levels and very low EP2 levels.
As a detection method for cAMP the HTRF (homogeneous time resolved fluorescence) Cisbio kit (HTRF cAMP dynamic 2 kit 20′000 tests Cisbio Cat. #62AM4PEC) was used, which is based on a competitive immunoassay using a Cryptate-labeled anti-cAMP antibody and d2-labeled cAMP. Native cAMP produced by cells or unlabeled cAMP (for the standard curve) compete with exogenously added d2-labeled cAMP (acceptor) for binding to monoclonal anti-cAMP-Eu3+ Cryptate (donor). A FRET signal (Fluorescence Resonance Energy Transfer) is obtained only if the labeled anti-cAMP antibody binds the d2 labelled cAMP, thus the specific signal (i.e. energy transfer) is inversely proportional to the concentration of cAMP in the standard or sample.
The SF295 cells (NCI/No. 0503170) are detached from culture dishes with a cell dissociation buffer (Invitrogen, 13151-014), and collected in growing medium (GM: RPM11640 (Invitrogen 21875)/10% FCS, 1% Penicilin/streptomycin). Cells are counted washed and resuspended in assay buffer (AB; HBSS, 20 mM HEPES, 0.2% BSA; 2 mM IBMX). 4′000 cells in 5 μl of AB are seeded per well of a small volume 384 well plate (black with flat bottom, Greiner 784076).
PGE2 (Cayman 14010, stock solution: 750 in DMSO) is used as agonist at 75 nM final concentration, corresponding to EC80.
Two point five microliters of diluted compounds are transferred into the assay plate. Plate is pre-incubated 45 minutes at room temperature. Subsequently, 2.5 microliters of PGE2 (final conc. 75 nM) are transferred into the assay plate. Plate is incubated 30 minutes at room temperature.
For each compound concentration the percentage of cAMP compared to DMSO control value as average±STDEV (each concentration is measured in duplicate) is calculated.

PTRGER4 (EP4) = PTRGER4 (EP4) (Homo sapiens, UniProt P35408);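 further: assay plate preincubated 15 min at 37 °C, after which PGE2 was added at 20 nM final and incubation continued 120 min at 37 °C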
Chain of PTRGER4 (EP4) (P35408 whole entry): as the sequence (P35408 whole entry) above

Chain of PTGER2 (EP2) (P43116 whole entry): as the sequence (P43116 whole entry) above

Row | SMILES | pIC50 (PTGER2 (EP2)) | pIC50 (EP4) | pIC50 (EP2) | pIC50 (PTRGER4 (EP4))
1 | CCOc1ccccc1CCNc1cc(-c2cc(OCC)c(-c3noc(=O)[nH]3)s2)ncn1 [Example 102, 3-(3-Ethoxy-5-{6-[2-(2-ethoxy-phenyl)-ethylamino]-pyrimidin-4-yl}-thiophen-2-yl)-[1,2,4]oxadiazol-5(4H)-one] | 7.47 | 6.91 | 7.77 | 7.04
2 | CCOc1cc(-c2cc(NCCc3ccc(Cl)cc3[N+](=O)[O-])ncn2)sc1C(=O)O [Example 65, 5-{6-[2-(4-Chloro-2-nitro-phenyl)-ethylamino]-pyrimidin-4-yl}-3-ethoxy-thiophene-2-carboxylic acid] | 6.95 | 7.28 | 6.99 | 6.87
3 | CCCOc1cc(-c2cc(NCCc3c(F)cc(Br)cc3F)ncn2)ccc1C(=O)O [Example 36, 4-{6-[2-(4-Bromo-2,6-difluoro-phenyl)-ethylamino]-pyrimidin-4-yl}-2-propoxy-benzoic acid] | 7.15 | 6.02 | 7.04 | 6.16
4 | CCOc1cc(-c2cc(NCCc3cccc(C(=O)OC)c3)ncn2)sc1C(=O)O [Example 76, 3-Ethoxy-5-{6-[2-(3-methoxycarbonyl-phenyl)-ethylamino]-pyrimidin-4-yl}-thiophene-2-carboxylic acid] | 6.31 | 7.06 | 6.63 | 6.51
5 | CCOc1cc(-c2cc(NCCc3c(F)ccc(F)c3Cl)ncn2)sc1-c1noc(=O)[nH]1 [Example 100, 3-(5-{6-[2-(2-Chloro-3,6-difluoro-phenyl)-ethylamino]-pyrimidin-4-yl}-3-ethoxy-thiophen-2yl)-[1,2,4]oxadiazol-5(4H)-one] | 7.77 | 7.23 | 7.30 | 7.57
6 | CCCc1cc(-c2cc(NCCc3ccc(C(F)(F)F)cc3OCC)ncn2)ccc1C(=O)O [Example 213, 4-{6-[2-(2-Ethoxy-4-trifluoromethyl-phenyl)-ethylamino]-pyrimidin-4-yl}-2-propyl-benzoic acid] | 7.15 | 6.52 | 6.74 | 6.66
7 | CCOc1cc(-c2cc(NCCc3ccc(Br)cc3OC)ncn2)ccc1C(=O)O [Example 50, 4-{6-[2-(4-Bromo-2-methoxy-phenyl)-ethylamino]-pyrimidin-4-yl}-2-ethoxy-benzoic acid] | 6.58 | 6.04 | 6.59 | 5.88
8 | CCOc1nc(-c2cc(NCCc3c(F)cc(Br)cc3F)ncn2)sc1-c1noc(=O)[nH]1 [Example 150, 3-(2-{6-[2-(4-Bromo-2,6-difluoro-phenyl)-ethylamino]-pyrimidin-4-yl}-4-ethoxy-thiazol-5-yl)-[1,2,4]oxadiazol-5(4H)-one] | 7.89 | 8.05 | 7.82 | 8.70
9 | CCOc1cc(-c2cc(NCCc3ccc(Br)cc3)ncn2)sc1-c1nnn[nH]1 [Example 131, [2-(4-Bromo-phenyl)-ethyl]-{6-[4-ethoxy-5-(1H-tetrazol-5-yl)-thiophen-2-yl]-pyrimidin-4-yl}-amine] | 7.74 | 7.96 | 7.27 | 8.52
10 | CCOc1cc(-c2cc(NCCc3ccc(Cl)c(Cl)c3)ncn2)sc1-c1noc(=O)[nH]1 [Example 121, 3-(5-{6-[2-(3,4-Dichloro-phenyl)-ethylamino]-pyrimidin-4-yl}-3-ethoxy-thiophen-2-yl)-[1,2,4]oxadiazol-5(4H)-one] | 7.18 | 7.38 | 7.22 | 8.05
11 | CCCc1cc(-c2cc(NCCc3c(F)cc(Br)cc3F)ncn2)cc(F)c1C(=O)O [Example 39, 4-{6-[2-(4-Bromo-2,6-difluoro-phenyl)-ethylamino]-pyrimidin-4-yl}-2-fluoro-6-propyl-benzoic acid] | 6.91 | 6.16 | 6.79 | 6.46
12 | CCOc1cc(C(F)(F)F)ccc1CCNc1cc(-c2cc(OCC)c(-c3noc(=O)[nH]3)s2)ncn1 [Example 90, 3-(3-Ethoxy-5-{6-[2-(2-ethoxy-4-trifluoromethyl-phenyl)-ethylamino]-pyrimidin-4-yl}-thiophen-2yl)-[1,2,4]oxadiazol-5(4H)-one] | 7.59 | 8.00 | 7.62 | 8.52
13 | Cc1cc(-c2cc(NCCc3c(F)cc(Br)cc3F)ncn2)sc1C(=O)O [Example 28, 5-{6-[2-(4-Bromo-2,6-difluoro-phenyl)-ethylamino]-pyrimidin-4-yl}-3-methyl-thiophene-2-carboxylic acid] | 7.31 | 7.39 | 7.39 | 7.10
14 | CCOc1cc(-c2cc(NCCc3ccc(F)cc3C#N)ncn2)sc1-c1noc(=O)[nH]1 [Example 97] | 6.88 | 6.90 | 6.84 | 7.02
15 | CCOc1cc(-c2cc(NCCc3c(F)cc(Br)cc3F)ncn2)[nH]c1C(=O)O [Example 268, 5-{6-[2-(4-Bromo-2,6-difluoro-phenyl)-ethylamino]-pyrimidin-4-yl}-3-ethoxy-1H-pyrrole-2-carboxylic acid] | 7.72 | 6.65 | 7.68 | 6.53
16 | CCOc1cc(-c2cc(NCCc3c(C)cc(C)cc3OC)ncn2)sc1C(=O)O [Example 203, 3-Ethoxy-5-{6-[2-(2-methoxy-4,6-dimethyl-phenyl)-ethylamino]-pyrimidin-4-yl}-thiophene-2-carboxylic acid] | 7.09 | 7.96 | 7.57 | 7.04
17 | CCOc1cc(Br)ccc1CCNc1cc(-c2cc(OCC)c(-c3noc(=O)[nH]3)s2)ncn1 [Example 85, 3-(5-{6-[2-(4-Bromo-2-ethoxy-phenyl)-ethylamino]-pyrimidin-4-yl}-3-ethoxy-thiophen-2-yl)-[1,2,4]oxadiazol-5(4H)-one] | 8.10 | 7.92 | 8.15 | 8.22
18 | CCOc1cc(-c2cc(NCCc3ccccc3F)ncn2)sc1C(=O)O [Example 56, 3-Ethoxy-5-{6-[2-(2-fluoro-phenyl)-ethylamino]-pyrimidin-4-yl}-thiophene-2-carboxylic acid] | 6.14 | 6.11 | 6.29 | 5.52
19 | O=c1[nH]c(-c2ccc(-c3cc(NCCc4c(F)cc(Br)cc4F)ncn3)s2)no1 [Example 135, 3-(5-{6-[2-(4-Bromo-2,6-difluoro-phenyl)-ethylamino]-pyrimidin-4-yl}-thiophen-2-yl)-[1,2,4]oxadiazol-5(4H)-one] | 7.59 | 7.47 | 7.82 | 8.10
20 | O=C(O)c1ccc2[nH]c(-c3cc(NCCc4c(F)cc(Br)cc4F)ncn3)cc2c1 [Example 168, 2-{6-[2-(4-Bromo-2,6-difluoro-phenyl)-ethylamino]-pyrimidin-4-yl}-1H-indole-5-carboxylic acid] | 6.72 | 5.70 | 5.77 | 6.71
21 | CCOc1cc(-c2cc(NCCc3c(F)cc(F)cc3F)ncn2)sc1-c1noc(=O)[nH]1 [Example 101, 3-(3-Ethoxy-5-{6-[2-(2,4,6-trifluoro-phenyl)-ethylamino]-pyrimidin-4-yl}-thiophen-2-yl)-[1,2,4]oxadiazol-5(4H)-one] | 7.36 | 7.09 | 7.21 | 6.99
